The text below walks through data of publication PMC11191602, “A novel and selective fluorescent ligand for the study of adenosine A2B receptors” (Pharmacology Research & Perspectives, 2024).

Structures are written as SMILES. pKd: −log10 of the molar value. Like-named read-outs stand apart in the source and are kept apart here. Where only a bound is given, the exact number is not on record here.

One experiment concerns the target T1, NLuc‐A2BR (Homo sapiens, UniProt P29275).
T1 construct: expressed in transfected cells
T1 sequence (P29275 1-332): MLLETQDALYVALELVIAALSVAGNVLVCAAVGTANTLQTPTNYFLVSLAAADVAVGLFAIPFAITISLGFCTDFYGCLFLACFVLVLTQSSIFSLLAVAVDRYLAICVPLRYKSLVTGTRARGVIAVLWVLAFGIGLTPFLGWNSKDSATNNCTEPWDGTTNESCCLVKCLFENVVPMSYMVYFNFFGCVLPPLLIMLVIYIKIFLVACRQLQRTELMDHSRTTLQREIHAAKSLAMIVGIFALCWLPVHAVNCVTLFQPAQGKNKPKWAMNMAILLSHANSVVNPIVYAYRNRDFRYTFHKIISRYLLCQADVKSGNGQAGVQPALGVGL
Description: NanoBRET ligand‐binding kinetics of 200 nM PSB603‐BY630 in HEK293G cells expressing NLuc‐A2BR. As to the method:
(§1) Saturation and competition binding assays were performed as previously described.[36] Briefly, cells were seeded in 96‐well white clear‐bottomed Greiner plates pre‐treated with 10 μg/mL poly‐D‐lysine (Sigma‐Aldrich, Missouri USA) at a density of 30 000–35 000 cells per well in DMEM supplemented with 10% FBS. The following day medium was removed and cells were incubated with PSB603‐BY630 in the presence or absence of 1 μM MRS1706 (saturation binding assays) or competing ligand in the presence of 50 nM PSB603‐BY630 (competition binding assays) in HEPES buffered saline solution (HBSS; 145 mM NaCl, 5 mM KCl, 1.3 mM CaCl2, 1 mM MgSO4, 10 mM HEPES, 2 mM sodium pyruvate, 1.5 mM NaHCO3, 10 mM D‐glucose, pH 7.45) with 0.1% bovine serum albumin for 1 h at 37°C. The NanoLuc substrate, furimazine (Promega Corporation, Wisconsin, USA), was then added to each well (1:400 dilution) and the plate was incubated for 10 min in the dark at 37°C. The resulting bioluminescence resonance energy transfer (BRET) was measured using a PHERAstar FS plate reader (BMG Labtech) at 37°C. For each well, filtered light emissions at 460 nm (80 nm bandpass) and >610 nm (longpass) for the BODIPY630/650 ligand were simultaneously measured. BRET ratios were calculated by dividing the 610 nm emission by the 460 nm emission. All conditions were performed in 2–6 replicates within each plate. For kinetic experiments, cells were preincubated for 10 min with 1:400 dilution of furimazine prior to addition of 200 nM PSB603‐BY630 and BRET ratios determined every 0.5 min. At 60 min, 10 μM MRS‐1706 was added and the ligand‐binding kinetics followed for a further 60 min.
For kinetic binding experiments, the BRET ratio obtained in the absence of fluorescent ligand was determined for each time point and subtracted from the total binding to obtain baseline‐corrected values for total binding at each time point. 60 min after addition of 200 nM PSB603‐BY630, 10 μM MRS‐1706 was added and the dissociation data fitted to the following equation to obtain values for the dissociation rate constant (k off) in min^−1: Y=Yo−NS.e^−koff.t+NS where [Yo] is the binding at time 60 min (when 10 μM MRS‐1706 was added), NS is the non‐specific binding at infinite time, k off is dissociation rate constant. The residence time in min was then calculated as the reciprocal of k off.

The target in another experiment is T2, human NLuc‐A1R (Homo sapiens, UniProt P30542).
T2 construct: expressed in transfected cells
T2 sequence (P30542 1-326): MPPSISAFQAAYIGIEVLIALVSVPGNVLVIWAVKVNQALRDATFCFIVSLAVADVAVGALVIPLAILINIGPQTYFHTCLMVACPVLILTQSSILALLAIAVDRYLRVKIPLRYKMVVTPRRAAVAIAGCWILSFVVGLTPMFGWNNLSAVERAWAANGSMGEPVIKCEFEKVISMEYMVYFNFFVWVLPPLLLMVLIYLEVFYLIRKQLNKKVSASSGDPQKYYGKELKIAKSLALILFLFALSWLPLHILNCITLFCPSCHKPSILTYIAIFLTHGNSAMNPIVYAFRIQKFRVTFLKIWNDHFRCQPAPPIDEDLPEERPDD
Description: NanoBRET saturation binding in stable HEK293T cell line expressing NLuc‐A1R. The note with it: non‐specific defined with 1 μM SLV320; PSB603‐BY630 at concentrations up to 500 nM. The protocol:
as §1, with “The following day medium was removed and cells were incubated with PSB603‐BY630 in the presence or absence of 1 μM MRS1706 (saturation binding assays) or competing ligand in the presence of 50 nM PSB603‐BY630 (competition binding assays) in HEPES buffered saline solution (HBSS; 145 mM NaCl, 5 mM KCl, 1.3 mM CaCl2, 1 mM MgSO4, 10 mM HEPES, 2 mM sodium pyruvate, 1.5 mM NaHCO3, 10 mM D‐glucose, pH 7.45) with 0.1% bovine serum albumin for 1 h at 37°C.” left out

Experiment [1] deals with T3, human A2BR tagged with N‐terminal nanoluciferase (NLuc‐A2BR) (Homo sapiens, UniProt P29275).
T3 construct: expressed in transfected cells
T3 sequence (P29275 1-332): T1 sequence (P29275 1-332)
In words: NanoBRET saturation binding of PSB603‐BY630 in live HEK293G cells stably expressing NLuc‐A2BR. As to conditions: non‐specific binding defined with 1 μM MRS‐1706, 1 h 37°C, mean of five experiments. As to the method:
as §1, with “The NanoLuc substrate, furimazine (Promega Corporation, Wisconsin, USA), was then added to each well (1:400 dilution) and the plate was incubated for 10 min in the dark at 37°C.” left out, “All conditions were performed in 2–6 replicates within each plate.” left out, “At 60 min, 10 μM MRS‐1706 was added and the ligand‐binding kinetics followed for a further 60 min.” left out
Data were analyzed using Prism 7.4 software (GraphPad, San Diego, USA). […]

The term pKd denotes the Kd on a negative log10 scale, so that one unit is a factor of ten. Read a low pKd as a large Kd. Consider `CCCn1c(=O)[nH]c2[nH]c(-c3ccc(S(=O)(=O)N4CCN(c5ccc(OCCNC(=O)CCCCCNC(=O)COc6ccc(/C=C/C7=[N+]8C(=Cc9ccc(-c%10cccs%10)n9[B-]8(F)F)C=C7)cc6)cc5)CC4)cc3)nc2c1=O` [PSB603‐BY630], for which the koff was 0.000933 s⁻¹ on NLuc‐A2BR (200 nM PSB603‐BY630, 10 μM MRS‐1706 at 60 min, single representative experiment (Figure 5), read-out: K off in representative experiment (converted)) and 0.00108 s⁻¹ at NLuc‐A2BR (200 nM PSB603‐BY630, dissociation initiated with 10 μM MRS‐1706 at 60 min, 37°C, 5 experiments, read-out: dissociation rate constant k off (mean) (converted)). In addition, on NLuc‐A2BR (200 nM PSB603‐BY630, 37°C), the “time to reach binding equilibrium” value was not above 60 min. This compound also had a residence time at NLuc‐A2BR (reciprocal of k off, 37°C) of 15.4 min. Besides, the “specific binding to NLuc‐A1R” value at human NLuc‐A1R is reported as “negligible”. In experiment [1], this compound had a pKd of 7.74.
